Assay results reported in PubChem BioAssay (NCI).
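Dose response: 5 concentrations. Exposure: 48 h. Format: 96-well plates. Endpoint: linear interpolation; highest concentration if not reached. GI50: concentration for 50% inhibition of growth. Definition used: TGI = concentration required for complete inhibition of growth.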

Assays:
Assay in all cases: NCI tumour cell line growth inhibition, 48 h
[1] = test system: SNB-75 CNS
[2] = test system: OVCAR-8 ovarian
[3] = test system: HCT-15 colon
[4] = test system: SF-539 CNS
[5] = test system: SK-MEL-5 melanoma
[6] = test system: CAKI-1 renal
[7] = test system: RPMI-8226 leukemia
[8] = test system: RXF 393 renal
[9] = test system: NCI-H226 lung
[10] = test system: MALME-3M melanoma

Row | SMILES | TGI [1] [µM] | TGI [2] [µM] | TGI [3] [µM] | TGI [4] [µM] | TGI [5] [µM] | GI50 [2] [µM] | GI50 [6] [µM] | TGI [6] [µM] | GI50 [3] [µM] | GI50 [4] [µM] | GI50 [7] [µM] | TGI [7] [µM] | GI50 [5] [µM] | GI50 [8] [µM] | TGI [8] [µM] | GI50 [9] [µM] | TGI [9] [µM] | GI50 [10] [µM] | TGI [10] [µM] | GI50 [1] [µM]
1 | CC(=O)NC(C)(C)C1CCC(C)=C(c2ccccc2)C1 (stereo not drawn) | > 100 | > 100 | > 100 | > 100 | > 100 | – | – | – | – | – | – | – | – | – | – | – | – | – | – | –
2 | COC(=O)C1=C(O)[C@H](C(=O)OC)C2(O)C(C(=O)OC)[C@H](c3ccc(OC(=O)C(C)c4ccc(CC(C)C)cc4)cc3)C[C@@H]1[C@@H]2C(=O)OC (stereo partly drawn) | – | > 50 | > 50 | 8.05 | > 50 | 13.1 | > 50 | > 50 | 12.9 | 1.4 | 4.62 | > 50 | 15 | – | – | – | – | – | – | –
3 | Cc1ccccc1NC(=O)c1sc2nc(C)c(C(=O)/C=C/c3ccccc3)cc2c1N | – | > 50 | 1.94 | 1.96 | 2.71 | 1.6 | 1.08 | 2.68 | 0.836 | 0.977 | 1.2 | 3.48 | 1.11 | 0.821 | 1.6 | 1.07 | 2.35 | 1.43 | 6.11 | –
4 | COc1ccc2c(c1)[nH]c(=O)c1c3cccc(F)c3cn21 | 5.44 | > 73.3 | > 100 | 0.455 | > 100 | 0.129 | 0.0137 | 0.04 | 0.0458 | 0.0522 | 0.0295 | 0.27 | 0.0449 | 0.0375 | 34.1 | 12.1 | 44.7 | – | – | 0.0262
5 | CCOC(=O)C(=O)CC1=Nc2ccccc2SC(c2cccc(C)c2)C1 (stereo not drawn) | 38.7 | 25.1 | 35.7 | 35.1 | 36.2 | – | – | 54 | – | – | – | 67.3 | – | – | – | – | 32.5 | – | 31 | –
6 | COC(=O)N/N=C(\C)c1c(O)cc(C)oc1=O | > 100 | > 100 | > 100 | 58 | > 100 | – | – | – | – | – | – | – | – | – | – | – | > 100 | – | > 100 | –
7 | CCOP(=O)(OCC)C1CCCOC1=O (stereo not drawn) | > 100 | > 100 | > 100 | > 100 | > 100 | – | – | > 100 | – | – | – | > 100 | – | – | > 100 | – | – | – | > 100 | –
8 | C[C@]12CC[C@H]3[C@@H](CC=C4C[C@@H](N5CCCC5)CC[C@@]43C)[C@@H]1C/C(=C\c1cccc(OCCN3CCOCC3)c1)[C@@H]2O | 34.3 | 21.7 | > 100 | 3.38 | 10.6 | 3.74 | 6.91 | > 100 | 2.39 | 1.41 | – | – | 2.88 | 1.76 | 3.82 | 22 | 53.8 | 2.15 | 6.11 | 14.6
9 | O=[N+]([O-])C(/C=N/Nc1ccccc1)/C=N/Nc1ccccc1 | > 100 | > 100 | > 100 | > 100 | > 100 | – | – | > 100 | – | – | – | – | – | – | > 100 | – | > 100 | – | > 100 | –
10 | O=C(/C=C\c1ccc([N+](=O)[O-])cc1)c1ccccc(=O)c1O | 4.75 | 11.3 | 4.2 | – | 2.38 | – | – | 4.61 | – | – | – | 4.5 | – | – | – | – | 6.7 | – | 3.08 | –
11 | Cc1cccc(C)c1NC(=O)C1=NC(=S)NC(c2ccccc2)C1c1nc2ccccc2s1 (stereo not drawn) | > 100 | > 100 | – | > 100 | > 100 | – | – | > 100 | – | – | – | – | – | – | > 100 | – | > 100 | – | > 100 | –
12 | O=C1CC(c2cccc(F)c2)Nc2cc3c(cc21)OCO3 (stereo not drawn) | – | 1.52 | > 100 | – | < 0.01 | – | < 0.01 | > 100 | < 0.01 | < 0.01 | – | 0.162 | < 0.01 | – | 0.0943 | < 0.01 | – | – | – | –
13 | CC1=C(c2ccccc2)C(O)(c2ccccc2)C(C)C1=O (stereo not drawn) | 42.8 | > 100 | > 100 | > 100 | > 100 | 48 | 24.6 | > 100 | 31.4 | 17.1 | – | – | 14 | 17.4 | > 100 | 33.4 | > 100 | 27.7 | > 100 | 10.7
14 | NCCCC[C@@H]1NC(=O)[C@H](CC(=O)O)NC(=O)CNC(=O)[C@H](CCCN=C(N)N)NC(=O)[C@@H](N)CSSC[C@@H](C(=O)O)NC(=O)[C@H](CC(=O)O)NC(=O)[C@@H]2CCCN2C(=O)CNC1=O | – | > 100 | > 100 | > 100 | > 100 | > 100 | > 100 | > 100 | > 100 | > 100 | > 100 | > 100 | > 100 | > 100 | > 100 | > 100 | > 100 | > 100 | > 100 | –
15 | O=S(=O)(NNc1ccccc1)c1ccccc1 | > 100 | > 100 | > 100 | > 100 | 12.7 | – | – | 13.5 | – | – | – | 46.4 | – | – | 38.5 | – | 18.5 | – | – | –
16 | CCOC(=O)c1cc2c(cc1Cl)SC(=Nc1ccccc1)N(S(=O)(=O)c1ccc(Cl)cc1)S2(=O)=O | > 100 | 59.6 | 21.9 | 34.8 | 21.6 | 22.1 | 15.7 | 33.7 | 6.52 | 18.3 | 4.26 | 19.4 | 9.5 | 11.3 | 36.1 | 6.03 | 28.2 | – | – | 38.2
17 | Nc1ccc(C2=CC(c3ccc(Cl)cc3)N3C=CSC3=N2)cc1 (stereo not drawn) | 22.8 | 48.1 | 5.63 | 3.85 | 19.2 | 4.16 | 23.1 | > 100 | 2 | 1.84 | – | – | 5.67 | 2.03 | 4.18 | 9.36 | > 100 | 18.1 | 47.8 | 5.29
